{"source": "patent US20250197393A1", "about": "“INTEGRIN INHIBITOR AND USES THEREOF” (Pliant Therapeutics, Inc., priority 2023, published 2025)", "assay_type_in_all_cases": "physicochemical", "key": {"[1]": {"test": "Dry grinding", "conditions": "ground manually with mortar and pestle for 3 min", "procedure": "About 20 mg of (S)-4-((2-methoxyethyl)(4-(5,6,7,8-tetrahydro-1,8-naphthyridin-2-yl)butyl)amino)-2-(quinazolin-4-ylamino)butanoic acid L-tartaric acid cocrystal Pattern A was ground manually with a mortar and a pestle for 3 min. Potential form change and degree of crystallinity were evaluated by XRPD."}, "[2]": {"test": "Bulk stability of solid under temperature/humidity stress (HPLC, appearance, XRPD)", "conditions": "for purity decrease: listed as L-tartaric acid cocrystal Pattern A; for Bulk (XRPD) / Bulk (HPLC) purity, 316 nm: Solid state", "procedure": "Bulk stability of (S)-4-((2-methoxyethyl)(4-(5,6,7,8-tetrahydro-1,8-naphthyridin-2-yl)butyl)amino)-2-(quinazolin-4-ylamino)butanoic acid L-tartaric acid cocrystal Pattern A was evaluated at 25° C./92.5% RH in an open container, at 40° C./75% RH in an open container, and at 60° C. in a closed container over 1 week and 4 weeks.\nHowever, it became deliquescent after being stressed at 25° C./92.5% RH in an open container and at 40° C./75% RH in an open container after 1 week."}, "[3]": {"test": "VT-XRPD heating experiment", "conditions": "heated to 110° C. under dry nitrogen flow for about 30 min, then cooled to ambient (20-26° C., 20%-35% RH)", "procedure": "The dried(S)-4-((2-methoxyethyl)(4-(5,6,7,8-tetrahydro-1,8-naphthyridin-2-yl)butyl)amino)-2-(quinazolin-4-ylamino)butanoic acid L-tartaric acid cocrystal Pattern A was also investigated by VT-XRPD experiments. The(S)-4-((2-methoxyethyl)(4-(5,6,7,8-tetrahydro-1,8-naphthyridin-2-yl)butyl)amino)-2-(quinazolin-4-ylamino)butanoic acid L-tartaric acid cocrystal Pattern A was heated to 110° C. under dry nitrogen flow for about 30 min and then cooled to ambient condition (20-26° C., 20%-35% RH). The obtained solid parts were investigated by XRPD."}, "[4]": {"conditions": "40° C./75% RH, open container, 4 weeks"}, "[5]": {"conditions": "60° C., closed container, 4 weeks, listed as L-Tartaric acid cocrystal Pattern A, hydrate"}}}
{"smiles": "COCCN(CCCCc1ccc2c(n1)NCCC2)CC[C@H](Nc1ncnc2ccccc12)C(=O)O", "note": "[Pattern A, (S)-4-((2-methoxyethyl)(4-(5,6,7,8-tetrahydro-1,8-naphthyridin-2-yl)butyl)amino)-2-(quinazolin-4-ylamino)butanoic acid]", "values": [{"measurement": "degree of crystallinity after dry grinding (XRPD)", "setting": "[1]", "value": "no obvious change in crystallinity"}, {"measurement": "form change after dry grinding (XRPD)", "setting": "[1]", "value": "No form change"}, {"measurement": "purity decrease", "setting": "[2]; 25° C./92.5% RH in an open container, 4 weeks", "value": 0.9, "unit": "%"}, {"measurement": "physical form after stress", "setting": "[2]; 25° C./92.5% RH open, 40° C./75% RH open and 60° C. closed container, four weeks", "value": "remained the same form"}, {"measurement": "physical stability", "setting": "[2]; 25° C./92.5% RH open, 40° C./75% RH open and 60° C. closed container, over 4 weeks", "value": "physically stable"}, {"measurement": "purity decrease", "setting": "[2]; 60° C. in a closed container, 4 weeks", "value": 0.9, "unit": "%"}, {"measurement": "Bulk (XRPD)", "setting": "[2]; 25° C./92.5% RH, open container, 1 week", "value": "No form change"}, {"measurement": "Bulk (HPLC) purity, 316 nm", "setting": "[2]; 25° C./92.5% RH, open container, 1 week, listed as L-Tartaric acid cocrystal Pattern A, hydrate", "value": 99.2, "unit": "%"}, {"measurement": "Bulk (XRPD)", "setting": "[2]; 25° C./92.5% RH, open container, 4 weeks", "value": "No form change"}, {"measurement": "Bulk (HPLC) purity, 316 nm", "setting": "[2]; 25° C./92.5% RH, open container, 4 weeks, listed as L-Tartaric acid cocrystal Pattern A, hydrate", "value": 98.5, "unit": "%"}, {"measurement": "Bulk (XRPD)", "setting": "[2]; 40° C./75% RH, open container, 1 week", "value": "No form change"}, {"measurement": "Bulk (HPLC) purity, 316 nm", "setting": "[2]; 40° C./75% RH, open container, 1 week, listed as L-Tartaric acid cocrystal Pattern A, hydrate", "value": 98.9, "unit": "%"}, {"measurement": "Bulk (HPLC) purity, 316 nm", "setting": "[2]; [4]", "value": 97.3, "unit": "%"}, {"measurement": "Bulk (XRPD)", "setting": "[2]; [4]", "value": "No form change"}, {"measurement": "Bulk (XRPD)", "setting": "[2]; 60° C., closed container, 1 week", "value": "No form change"}, {"measurement": "Bulk (HPLC) purity, 316 nm", "setting": "[2]; 60° C., closed container, 1 week, listed as L-Tartaric acid cocrystal Pattern A, hydrate", "value": 99.1, "unit": "%"}, {"measurement": "Bulk (HPLC) purity, 316 nm", "setting": "[2]; [5]", "value": 98.5, "unit": "%"}, {"measurement": "Bulk (XRPD)", "setting": "[2]; [5]", "value": "No form change"}, {"measurement": "stability under stress conditions", "setting": "[2]; open container, 25° C. and 92.5% relative humidity and 40° C. and 75% RH, up to four weeks", "value": "stable"}, {"measurement": "bulk stability relative to the phosphate salt", "setting": "[2]; various temperatures and relative humidities (BS1, BS2, BS3)", "value": "higher stability"}, {"measurement": "XRPD after heating (VT-XRPD)", "setting": "[3]", "value": "no form change"}]}
